Laboratory results: patent publication US20250129095A1, “ANNULATED 2-AMINO-3-CYANO THIOPHENES AND DERIVATIVES FOR THE TREATMENT OF CANCER” (Boehringer Ingelheim Int'l GmbH Corp., priority 2021, published 2025)
Where two headings read alike, the source gives them in different places.

What was measured:
KRAS G12D Ba/F3 = KRAS G12D Ba/F3 (Homo sapiens, UniProt P01116, G12D, cells depend on it); test: Ba/F3 proliferation assay, KRAS G12D; assay type: cell-based; settings: 72 h, AlamarBlue, read-out: KRAS G12D Ba/F3 IC50
Sequence of KRAS G12D Ba/F3 (P01116 whole entry G12D, canonical isoform): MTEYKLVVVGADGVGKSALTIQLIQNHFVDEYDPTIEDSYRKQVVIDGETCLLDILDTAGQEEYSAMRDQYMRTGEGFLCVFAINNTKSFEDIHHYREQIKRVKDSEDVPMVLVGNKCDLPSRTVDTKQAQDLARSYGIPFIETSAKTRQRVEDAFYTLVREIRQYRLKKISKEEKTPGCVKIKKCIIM
Protocol: (§1) Plasmids containing KRASG12 mutants(i.e. G12D, G12C, G12V) are obtained from GeneScript. To generate KRASG12-dependent Ba/F3 models, Ba/F3 cells are transduced with retroviruses containing vectors that harbor KRASG12 isoforms. Platinum-E cells (Cell Biolabs) are used for retrovirus packaging. Retrovirus is added to Ba/F3 cells. To ensure infection, 4 μg/mL polybrene is added and cells are spinfected. […] Cells with an infection efficiency of 10% to 20% are further cultivated and puromycin selection with 1 μg/mL is initiated. As a control, parental Ba/F3 cells are used to show selection status. Selection is considered successful when parental Ba/F3 cells cultures died. To evaluate the transforming potential of KRASG12 mutations, the growth medium is no longer supplemented with IL-3. Ba/F3 cells harboring the empty vector are used as a control. Approximately ten days before conducting the experiments, puromycin is left out.
(§2) Compounds are added using an Access Labcyte Workstation with a Labcyte Echo 550 or 555 accoustic dispenser. All treatments are performed in technical duplicates. […] AlamarBlue™ (ThermoFisher), a viability stain, is added and fluorescence measured in the PerkinElmer Envision HTS Multilabel Reader. The raw data are imported into and analyzed with the Boehringer Ingelheim proprietary software MegaLab (curve fitting based on the program PRISM, GraphPad Inc.).

KRAS G12C Ba/F3 = KRAS G12C Ba/F3 (Homo sapiens, UniProt P01116, G12C, cells depend on it); test: Ba/F3 proliferation assay, KRAS G12C; assay type: cell-based; settings: 72 h, AlamarBlue, read-out: KRAS G12C Ba/F3 IC50
Sequence of KRAS G12C Ba/F3 (P01116 whole entry G12C): as the sequence (P01116 whole entry G12D, canonical isoform) above, with D12C counted along it
Protocol: as §1, §2

KRAS G12V Ba/F3 = KRAS G12V Ba/F3 (Homo sapiens, UniProt P01116, G12V, cells depend on it); test: Ba/F3 proliferation assay, KRAS G12V; assay type: cell-based; settings: 72 h, AlamarBlue, read-out: KRAS G12V Ba/F3 IC50
Sequence of KRAS G12V Ba/F3 (P01116 whole entry G12V): as the sequence (P01116 whole entry G12D, canonical isoform) above, with D12V counted along it
Protocol: as §1, §2

AsPC-1 cells = test: AsPC-1 CTG proliferation assay (120 h) (pancreatic cancer, G12D); assay type: cell-based; settings: Homo sapiens, ASPC1
Protocol: The CTG assay is designed to measure quantitatively the proliferation of AsPC-1 cells (ATCC CRL-5985), using the CellTiter Glow Assay Kit (Promega G7571). Cells are grown in RPMI medium (ATCC) supplemented with Fetal Calf Serum (Life Technologies, Gibco BRL, Cat. No. 10270-106). On “day 0” 2000 AsPC-1 cells are seeded in 60 μL RPMI ATCC+10% FCS+ Penstrep in a 384-well plate, flat and clear bottom (Greiner, PNr. 781091). Cells are then incubated in the plates at 37° C. in a CO2 incubator overnight. On day 1, compounds (10 mM stock in DMSO) are added with the ECHO acoustic liquid handler system (Beckman Coulter), including DMSO controls. Plates are incubated for 120 h, and cell viability is measured using CellTiter-Glo luminescent cell viability reagent (Promega product code G7570). Viability (stated as percent of control) is defined as relative luminescence units RLU of each well divided by the RLU of cells in DMSO controls.

SAS cells = test: SAS CTG proliferation assay (120 h) (HNSCC, wt amplified); assay type: cell-based
Protocol: (§3) SAS cells (JCRB0260) are dispensed into 384-well plates, flat and clear bottom (Greiner, PNr. 781091) at a density of 300 cells per well in 60 μL DMEM:F12 (Gibco 31330-038)+10% Fetal Calf Serum (HyClone, PNr.: SH30084.03) and incubated at 37° C. in a CO2 incubator overnight The next day, compounds (10 mM stock in DMSO) are added with the ECHO acoustic liquid handler system (Beckman Coulter), including DMSO controls. Plates are incubated for 120 h, and cell viability is measured using CellTiter-Glo luminescent cell viability reagent (Promega product code G7570). Viability (stated as percent of control) is defined as relative luminescence units RLU of each well divided by the RLU of cells in DMSO controls.

SK-CO-1 cells = test: SK-CO-1 CTG proliferation assay (120 h) (CRC, G12V); assay type: cell-based; settings: Homo sapiens
Protocol: as §3, with “SK-CO-1 cells (ATCC” for “SAS cells (JCRB0260)”, “SK-CO-1 cells (ATCC HTB-39) are dispensed” for “SAS cells (JCRB0260) are dispensed”, “density of 500 cells per” for “density of 300 cells per”, “60 μL EMEM (Sigma M5650)+10% Fetal Calf” for “60 μL DMEM:F12 (Gibco 31330-038)+10% Fetal Calf”, “CO2 incubator overnight. The next” for “CO2 incubator overnight The next”

[1] = Plasma protein binding assay (PPB), equilibrium dialysis; assay type: in vitro ADME; settings: bovine, 10% FCS in PBS, read-out: PPB 10% FCS (% fu)
Protocol: Binding of test compounds to plasma was determined using equilibrium dialysis (ED) and quantitative mass spectrometry interfaced with liquid chromatography (LC-MS). In brief, ED was performed with dialysis devices consisting of two chambers separated by a semipermeable membrane with a molecular weight cut-off of 5-10 kg/mol. One chamber was filled with 10% FCS in PBS containing 1-10 μmol/L test compound and the other chamber was filled with phosphate-buffer saline (PBS) with or without dextran. The dialysis chamber was incubated for 3-5 hours at 37° C. After incubation, protein was precipitated from aliquots of each chamber and the concentration of test compound in the supernatant of the plasma-containing compartment (cserum) and of the buffer-containing compartment (cbuffer) was determined by LC-MS. The fraction of unbound test compound (not bound to plasma) (fu) was calculated according to the following equation: […]

[2] = Solubility measurement (DMSO solution precipitation method); assay type: physicochemical; settings: aqueous buffer, kinetic from dmso stock
Protocol: The DMSO solution is diluted with an aqueous medium (McIlvaine buffer with pH=4.5 or 6.8) to a final concentration of 250 μM. After 24 h of shaking at ambient temperature a potentially formed precipitate is removed by filtration. The concentration of the test compound in the filtrate is determined by LC-UV methods by calibrating the signal to the signal of a reference solution with complete dissolution of the test compound in acetonitrile/water (1:1) with known concentration.

[3] = McIlvaine buffer pH 4.5, 24 h, read-out: Solubility [μg/ml] pH 4.5
[4] = McIlvaine buffer pH 6.8, 24 h, read-out: Solubility [μg/ml] pH 6.8

| GI50 (KRAS G12D Ba/F3) [nM] | GI50 (KRAS G12C Ba/F3) [nM] | GI50 (KRAS G12V Ba/F3) [nM] | IC50 (AsPC-1 cells) [nM] | IC50 (SK-CO-1 cells) [nM] | fraction unbound [1] | solubility at 24 h [2, 3] [µg/mL] | solubility at 24 h [2, 4] [µg/mL] | SMILES | IC50 (SAS cells) [nM] |
| --- | --- | --- | --- | --- | --- | --- | --- | --- | --- |
| 15 | 85 | 137 | 571 | 326 | 0.48 | > 163 | > 152 | COc1c(OCC2(N(C)C)COC2)nc(-c2noc3c2CCC[C@@]32CCCc3sc(N)c(C#N)c32)nc1O[C@@H](C)[C@@H]1CCCN1C [II-25] | 55 |
| 130 | 2080 | 2040 | 443 | 2590 | 0.59 | > 151 | > 146 | C[C@H]1CN(C)CCCN1c1cc(O[C@@H]2CNC2(C)C)nc(-c2noc3c2CCC[C@@]32CCCc3sc(N)c(C#N)c32)n1 [II-28] | 4450 |
| 5 | 219 | 297 | 36 | 260 | 0.3 | > 171 | > 165 | CO[C@@H]1C[C@@H]([C@H](C)Oc2cc(O[C@@H]3CNC3(C)C)nc(-c3noc4c3CCC[C@@]43CCCc4sc(N)c(C#N)c43)n2)N(C)C1 [II-30] | 267 |
| 3 | 203 | 230 | 25 | 394 | 0.31 | > 157 | > 143 | C[C@H](Oc1cc(O[C@@H]2CNC2(C)C)nc(-c2noc3c2CCC[C@@]32CCCc3sc(N)c(C#N)c32)n1)[C@@H]1C[C@@H](F)CN1C [II-31] | 402 |
